Assay results reported in ChEMBL document CHEMBL1201862, “PubChem BioAssay data set” (2004).
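Five concentrations, 48 hours, 96-well plates. GI50 = concentration required for 50% inhibition of growth.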 Calls of active or inactive are those of the source. No stated cut-off is given here; in the data, active = GI50 up to about 1.1 µM and inactive = higher.

Tests used:
Assay in all cases: NCI-60 cell line screen, 48 h
[1] = test system: TK-10
[2] = test system: HCT-116
[3] = test system: HL-60
[4] = test system: MCF7
[5] = test system: HOP-92
[6] = test system: SK-MEL-2
[7] = test system: SW-620
[8] = test system: NCI-H226
[9] = test system: A498
[10] = test system: SF-539
[11] = test system: OVCAR-4
[12] = test system: ACHN
[13] = test system: NCI/ADR-RES
[14] = test system: SK-MEL-28
[15] = test system: RXF 393
[16] = test system: OVCAR-5
[17] = test system: PC-3
[18] = test system: SF-268
[19] = test system: SNB-19
[20] = test system: HCT-15
[21] = test system: SNB-75
[22] = test system: BT-549
[23] = test system: OVCAR-8
[24] = test system: IGROV-1
[25] = test system: U-251
[26] = test system: HOP-62
[27] = test system: NCI-H23
[28] = test system: MDA-N
[29] = test system: HCC 2998
[30] = test system: CAKI-1
[31] = test system: 786-0
[32] = test system: DU-145
[33] = test system: UACC-62
[34] = test system: UO-31
[35] = test system: MDA-MB-435
[36] = test system: RPMI-8226
[37] = test system: T47D
[38] = test system: NCI-H460
[39] = test system: EKVX
[40] = test system: A549
[41] = test system: M14
[42] = test system: NCI-H522
[43] = test system: SK-MEL-5
[44] = test system: MOLT-4
[45] = test system: Hs-578T
[46] = test system: MDA-MB-231
[47] = test system: HT-29
[48] = test system: Malme-3M
[49] = test system: OVCAR-3
[50] = test system: SN12C
[51] = test system: SF-295
[52] = test system: LOX IMVI
[53] = test system: SK-OV-3
[54] = test system: K562
[55] = test system: COLO 205
[56] = test system: UACC-257
[57] = test system: CCRF-CEM
[58] = test system: KM12

In the case of `CC[C@H](C)[C@H]1NC(=O)[C@@H](NC(=O)[C@@H](CC(C)C)N(C)C(=O)C2CCCN2C(=O)[C@H](C)O)[C@@H](C)OC(=O)[C@H](Cc2ccccc2)N(C)C(=O)[C@@H]2CCCN2C(=O)[C@H](CC(C)C)NC(=O)[C@@H](C)C(=O)[C@H](C(C)C)OC(=O)C[C@@H]1O` (some centres undefined), the GI50 [1] is reported as < 6.25 nM (active), the GI50 [2] is reported as < 6.25 nM (active) and the GI50 [3] is reported as 122 nM (active). For the same molecule, the GI50 [4] was < 6.25 nM (active), the GI50 [5] was < 6.25 nM (active) and the GI50 [6] was < 6.25 nM (active). The GI50 [7] was < 6.25 nM (active), the GI50 [8] was < 6.25 nM (active) and the GI50 [9] was < 6.25 nM (active). For the same molecule, the GI50 [10] was < 6.25 nM (active), the GI50 [11] was < 6.25 nM (active) and the GI50 [12] was < 6.25 nM (active). The GI50 [13] was 58.9 nM (active), the GI50 [14] was < 6.25 nM (active) and the GI50 [15] was < 6.25 nM (active). The GI50 [16] was < 6.25 nM (active), the GI50 [17] was < 6.25 nM (active) and the GI50 [18] was < 6.25 nM (active). For the same molecule, the GI50 [19] was < 6.25 nM (active), the GI50 [20] was 7.57 nM and the GI50 [21] was < 6.25 nM (active). The GI50 [22] was < 6.25 nM (active), the GI50 [23] was < 6.25 nM (active) and the GI50 [24] was < 6.25 nM (active). For the same molecule, the GI50 [25] was < 6.25 nM (active), the GI50 [26] was < 6.25 nM (active) and the GI50 [27] was < 6.25 nM (active). The GI50 [28] was < 6.25 nM (active), the GI50 [29] was < 6.25 nM (active) and the GI50 [30] was < 6.25 nM (active). For the same molecule, the GI50 [31] was < 6.25 nM (active), the GI50 [32] was < 6.25 nM (active) and the GI50 [33] was < 6.25 nM (active). For the same molecule, the GI50 [34] was < 6.25 nM (active), the GI50 [35] was < 6.25 nM (active) and the GI50 [36] was < 6.25 nM (active). For the same molecule, the GI50 [37] was < 6.25 nM (active), the GI50 [38] was < 6.25 nM (active) and the GI50 [39] was < 6.25 nM (active). The GI50 [40] was < 6.25 nM (active), the GI50 [41] was < 6.25 nM (active) and the GI50 [42] was < 6.25 nM (active). The GI50 [43] was < 6.25 nM (active), the GI50 [44] was < 6.25 nM (active) and the GI50 [45] was < 6.25 nM (active). The GI50 [46] was < 6.25 nM (active), the GI50 [47] was < 6.25 nM (active) and the GI50 [48] was < 6.25 nM (active). For the same molecule, the GI50 [49] was < 6.25 nM (active), the GI50 [50] was < 6.25 nM (active) and the GI50 [51] was < 6.25 nM (active). For the same molecule, the GI50 [52] was < 6.25 nM (active), the GI50 [53] was < 6.25 nM (active) and the GI50 [54] was < 6.25 nM (active). For the same molecule, the GI50 [55] was < 6.25 nM (active), the GI50 [56] was < 6.25 nM (active) and the GI50 [57] was < 6.25 nM (active). For the same molecule, the GI50 [58] was < 6.25 nM (active).
In the case of `CCCCNc1nc(O)c2[nH]cnc2n1`, the GI50 [1] is reported as > 100000 nM (inactive), the GI50 [2] is reported as > 100000 nM (inactive) and the GI50 [4] is reported as > 100000 nM (inactive). For the same molecule, the GI50 [5] was > 100000 nM (inactive), the GI50 [6] was > 100000 nM (inactive) and the GI50 [7] was > 100000 nM (inactive). The GI50 [8] was > 100000 nM (inactive), the GI50 [9] was > 100000 nM (inactive) and the GI50 [10] was > 100000 nM (inactive). For the same molecule, the GI50 [11] was > 100000 nM (inactive), the GI50 [12] was > 100000 nM (inactive) and the GI50 [13] was > 100000 nM (inactive). The GI50 [15] was > 100000 nM (inactive), the GI50 [16] was > 100000 nM (inactive) and the GI50 [17] was > 100000 nM (inactive). For the same molecule, the GI50 [18] was > 100000 nM (inactive), the GI50 [19] was > 100000 nM (inactive) and the GI50 [20] was > 100000 nM. For the same molecule, the GI50 [21] was > 100000 nM (inactive), the GI50 [22] was > 100000 nM (inactive) and the GI50 [23] was > 100000 nM (inactive). For the same molecule, the GI50 [24] was > 100000 nM (inactive), the GI50 [25] was > 100000 nM (inactive) and the GI50 [26] was > 100000 nM (inactive). The GI50 [27] was > 100000 nM (inactive), the GI50 [28] was > 100000 nM (inactive) and the GI50 [29] was > 100000 nM (inactive). For the same molecule, the GI50 [30] was > 100000 nM (inactive), the GI50 [31] was > 100000 nM (inactive) and the GI50 [32] was > 100000 nM (inactive). For the same molecule, the GI50 [33] was > 100000 nM (inactive), the GI50 [34] was > 100000 nM (inactive) and the GI50 [35] was > 100000 nM (inactive). For the same molecule, the GI50 [36] was > 100000 nM (inactive), the GI50 [37] was > 100000 nM (inactive) and the GI50 [38] was > 100000 nM (inactive). The GI50 [39] was > 100000 nM (inactive), the GI50 [40] was > 100000 nM (inactive) and the GI50 [41] was > 100000 nM (inactive). The GI50 [42] was 51800 nM (inactive), the GI50 [43] was > 100000 nM (inactive) and the GI50 [44] was > 100000 nM (inactive). For the same molecule, the GI50 [45] was > 100000 nM (inactive), the GI50 [46] was > 100000 nM (inactive) and the GI50 [47] was > 100000 nM (inactive). For the same molecule, the GI50 [48] was > 100000 nM (inactive), the GI50 [49] was > 100000 nM (inactive) and the GI50 [50] was > 100000 nM (inactive). For the same molecule, the GI50 [51] was > 100000 nM (inactive), the GI50 [52] was > 100000 nM (inactive) and the GI50 [53] was > 100000 nM (inactive). The GI50 [54] was > 100000 nM (inactive), the GI50 [55] was > 100000 nM (inactive) and the GI50 [56] was > 100000 nM (inactive). For the same molecule, the GI50 [57] was > 100000 nM (inactive) and the GI50 [58] was > 100000 nM (inactive).
